Experimental data published in patent US12319681B2, “Tripartite androgen receptor eliminators, methods and uses thereof” (SPG Therapeutics, Inc., priority 2017, dated 2025).
pIC50: −log10 of the molar value. Where two headings read alike, the source gives them in different places.

How the values were obtained:
[1] = test system: normal Human Adult Primary Epidermal Keratinocyte cell line; details: 24 h
Procedure: For the Keratinocyte assay, normal Human Adult Primary Epidermal Keratinocyte cell line (ATCC PCS-200-011) was maintained in EPIUFE® Medium, with 60 μM calcium (Thermo MEPISOOCA) supplemented with Human Keratinocyte Growth Supplement, 100 U/mL penicillin, and 100 μg/mL streptomycin at 37° C. with 5% C02. For experiments, cells were seeded at 70% confluence per well in 100 μL of medium in 96-well plates. […] After 16 hours, medium was removed and replaced with dosing medium.
A 5α-Androstan-17β-ol-3-one (DHT) stock solution was prepared at 1,000× in ethanol. […] Dosing medium was prepared at the time of treatment by serial diluting stock solution into medium. Ethanol concentrations in media never exceeded 0.1%. […] Negative control wells contained 100 μL medium/well with 1 μL of ethanol/mL of medium and an appropriate amount of DMSO. Each plate also contained 1.0 nM DHT with an ARE or without an ARE as a positive control. Cells were incubated 24 hours at 37° C. without CO2.
(§3) To assess for cell viability, cells were first visually examined under a phase-contrast microscope to record cell confluence, morphological changes, and presence of drug crystallization as well as to observe signs of cytotoxity such as, e.g., detachment, vacuolization, membrane degradation, or lack of phase brightness. After microscopic inspection, a Trypan Blue exclusion assay was performed to assess cell viability and cell number for each well. Each well was washed with 0.5 mL volume of PBS. 30 µL of Trypan Blue was added to each well for 5-10 minutes. Total cell number and total viable cell number will be counted from 1 number of fields per well, in triplicate.

[2] = test system: normal Human Adult Primary Epidermal Keratinocyte cell line; details: 72 h
Procedure: For the Keratinocyte assay, normal Human Adult Primary Epidermal Keratinocyte cell line (ATCC PCS-200-011) was maintained in EPIUFE® Medium, with 60 μM calcium (Thermo MEPISOOCA) supplemented with Human Keratinocyte Growth Supplement, 100 U/mL penicillin, and 100 μg/mL streptomycin at 37° C. with 5% C02. For experiments, cells were seeded at 70% confluence per well in 100 μL of medium in 96-well plates. Reverse transfection was done on the cells using Lipofectamine 3000 (Life Technologies) with plasmids according to manufacturer's instructions. Briefly, 0.3 μL transfection reagent per 100 ng DNA were incubated with P3000 reagent and Opti-Mem prior to addition of cells. After 16 hours, medium was removed and replaced with dosing medium.
Each ARE tested was prepared in DMSO. Dosing medium was prepared at the time of treatment by serial diluting stock solution into medium. Ethanol concentrations in media never exceeded 0.1%. […] Negative control wells contained 100 L medium/well with 1 μL of ethanol/mL of medium and an appropriate amount of DMSO. […] Cells were incubated 72 hours at 37° C. without CO2.

[3] = test system: MDA-kb2 mammary gland breast cancer cell line; details: human, 24 h
Procedure: For the MDA-kb2 assay, MDA-kb2 mammary gland breast cancer cell line was maintained in L-15 media (Gibco) supplemented with 10% FBS, 100 U/mL penicillin, 100 μg/mL streptomycin, and 0.25 μg/mL amphotericin B at 37° C., without CO2. For experiments, cells were plated at 1.0×10^4 cells (50% confluence) per well in 100 μL of medium in 96-well plates. When cells were attached (after 6 hours), medium was removed and replaced with dosing medium containing 10% charcoal stripped FBS.
A 5α-Androstan-17β-ol-3-one (DHT) stock solution was prepared at 1,000× in ethanol. Each ARE tested was prepared in DMSO. Dosing medium was prepared at the time of treatment by serial diluting stock solution into medium. Ethanol concentrations in media never exceeded 0.1%. […] Negative control wells contained 100 μL medium/well with 1 μL of ethanol/mL of medium and an appropriate amount of DMSO. Each plate also contained 1.0 nM DHT with an ARE or without an ARE as a positive control. Cells were incubated 24 hours at 37° C. without CO2.
as §3

androgen receptor (AR) [4] = target: T1, androgen receptor (AR) (Homo sapiens, UniProt P10275); experiment: MDA-kb2 Assay with 0.1 nM DHT (Example 13); type: cell-based
Procedure: (§1) To assess ARE-mediated inhibition, an AR luciferase assay was performed. After washing cells with 1×PBS, 20 μL lysis buffer (25 mM Tris/phosphate, 4 mM EGTA, 1% Triton, 10% glycerol, 2 mM DTT) was added per well, incubated for 5 minutes with gentle shaking and store at −80° C. On the day of assay, the plates were thawed to ambient temperature and 80 μL of assay buffer (25 mM glycylglycine, 15 mM MgCl2. 5 mM ATP, 0.1 mg/ml BSA) was added to each well. Plates are then processed on a microplate reader (POLARstar Omega) by injecting 100 μL of 1 mM D-luciferin per well, followed by chemiluminescence measurement of 3 seconds at onset of injection. Luciferase activity was determined, measured, and normalized to Relative Light Units (RLU). AR reporter gene activity reduction values were calculated as follows: AR reporter gene activity=1−(average signal (treatment group)/average signal (treatment group without drug).
To determine efficacy of a compound, a MDA-kb2 assay was performed as described in Example 10. The cells were treated with compounds for 24 hours prior to measurements of reporter gene activity. […] AR luciferase assay results were analyzed using GraphPad Prism using a four-parameter logistic curve equation. Bottom constraints were set at 1 (level of uninduced control.)

androgen receptor (AR) [5] = target: T2, androgen receptor (AR) (Homo sapiens, UniProt P10275); experiment: Keratinocyte AR luciferase reporter gene assay (Example 10); type: cell-based; details: 24 h, read-out: Gene Activity Reduction
T2 construct: human keratinocytes transfected with an AR luciferase reporter gene; endogenous in cells; host or cells: normal human adult primary epidermal keratinocytes (ATCC PCS-200-011)
T2 sequence (P10275 1-920): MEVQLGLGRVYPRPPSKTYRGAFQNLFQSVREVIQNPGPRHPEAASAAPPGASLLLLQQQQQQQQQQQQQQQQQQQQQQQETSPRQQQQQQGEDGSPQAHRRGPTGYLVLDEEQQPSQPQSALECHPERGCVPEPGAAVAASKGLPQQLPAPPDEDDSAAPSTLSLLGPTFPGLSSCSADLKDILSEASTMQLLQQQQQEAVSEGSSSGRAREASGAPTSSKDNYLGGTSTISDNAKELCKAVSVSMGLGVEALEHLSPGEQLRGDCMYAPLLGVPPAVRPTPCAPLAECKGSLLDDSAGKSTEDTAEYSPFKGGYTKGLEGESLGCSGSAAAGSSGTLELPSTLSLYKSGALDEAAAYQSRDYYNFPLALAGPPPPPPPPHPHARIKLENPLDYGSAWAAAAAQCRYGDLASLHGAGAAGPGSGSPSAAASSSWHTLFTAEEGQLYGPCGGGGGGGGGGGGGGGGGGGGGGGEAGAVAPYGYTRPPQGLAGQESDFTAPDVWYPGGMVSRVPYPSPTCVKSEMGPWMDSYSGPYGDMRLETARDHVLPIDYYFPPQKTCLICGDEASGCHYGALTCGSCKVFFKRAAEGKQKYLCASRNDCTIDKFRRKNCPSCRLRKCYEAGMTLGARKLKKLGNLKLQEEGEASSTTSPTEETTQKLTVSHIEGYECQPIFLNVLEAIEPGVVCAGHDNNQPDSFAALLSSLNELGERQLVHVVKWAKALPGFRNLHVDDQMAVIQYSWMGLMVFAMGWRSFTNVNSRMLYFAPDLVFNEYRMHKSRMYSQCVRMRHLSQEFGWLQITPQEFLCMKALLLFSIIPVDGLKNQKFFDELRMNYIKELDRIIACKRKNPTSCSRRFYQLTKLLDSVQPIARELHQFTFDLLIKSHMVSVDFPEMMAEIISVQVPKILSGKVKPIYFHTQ
Procedure: (§2) Each ARE tested was prepared in DMSO. […] Ethanol concentrations in media never exceeded 0.1%.
as §1

human keratinocytes = experiment: Keratinocyte cell viability / cytotoxicity in Example 12; type: cell-based; details: extended treatment
[6] = Solubility screening tests in 8 solvent systems; type: physicochemical
Procedure: Solubility screening tests were performed in 8 solvent systems: (1) Transcutol: Ethanol: Isopropyl myristate (IPM) 2:3:5 (v:v); (2) Transcutol: Ethanol 3:7 (v:v); (3) Ethanol: Propylene Glycol 1:1 (v:v); (4) Ethanol:H2O 7:3 (v:v); (5) IPM; (6) Ethanol:Tween 80: Cetyl Alcohol 90:5:5 (w:w); (7) CCT: Tween 80: Cetyl Alcohol 90:5:5 (w:w); and (8) CCT: Isopropanol 1:1 (v: v). […] One objective was to identify solvent systems for solution formulation at targeted API concentration of 1% by weight. Another objective was to identify solvents that are potentially good penetration enhancers and yet clinically viable. Since cetyl alcohol is solid, the solvent systems with them were prepared in weight ratios.

androgen receptor (AR) [7] = target: T1, androgen receptor (AR); experiment: MDA-kb2 AR luciferase reporter gene assay (1.0 nM DHT); type: cell-based; details: MDA-kb2, 24 h, read-out: Gene Activity Reduction
Procedure: This example illustrates how to determine the inhibitory activity of an ARE disclosed herein using a cell-based androgen receptor transcriptional reporter assay using an engineered cell line.
as §2, §1

[8] = test system: MDA-kb2 breast cancer cell; experiment: MDA-kb2 cell viability in Example 13; type: cell-based

## CC12CCC(=O)C=C1C[C@@H](SC(=O)CC13CC4CC(CC(C4)C1)C3)C1C2CCC2(C)C1CC[C@@]21CCC(=O)O1 (stereo partly drawn) [SPG-003]
[1]; 0.1 μM
  Cell Viability: 93%
[1]; 1 μM
  Cell Viability: 93%
[1]; 3 μM
  Cell Viability: 94%
[1]; 10 μM
  Cell Viability: 93%
[2]; 0.62 μM
  Cell Viability: 92.16 ± 1.30
[2]; 1.85 μM
  Cell Viability: 73.46 ± 1.11
[2]; 5.56 μM
  Cell Viability: 66.12 ± 3.09
[2]; 16.67 μM
  Cell Viability: 55.11 ± 0.16
[2]; 50 μM
  Cell Viability: 38.67 ± 2.25
[3]; 0.1 μM
  Cell Viability: 98%
[3]; 1 μM
  Cell Viability: 99%
[3]; 3 μM
  Cell Viability: 98%
[3]; 10 μM
  Cell Viability: 98%
Androgen receptor (AR) [4]; MDA-kb2, 0.1 nM DHT, 24 hours
  pIC50: 6.10
  IC90: 2710 nM
  Maximum Inhibition: 95%
Androgen receptor (AR) [4]; MDA-kb2, reduced DHT levels (0.1 nM)
  dose-dependent inhibition of AR reporter gene activity (in words): dose-dependent inhibition
Androgen receptor (AR) [5]
  inhibition at 0.1 µM: 21%
  inhibition at 1 µM: 31%
  inhibition at 3 µM: 50%
  inhibition at 10 µM: 93%
Human keratinocytes
  cell cytotoxicity (in words): minimal
[6]; solvent system (1) Transcutol: Ethanol: Isopropyl myristate (IPM) 2:3:5 (v:v), target 1% by weight
  solubility: good solubility
[6]; solvent system (2) Transcutol: Ethanol 3:7 (v:v), target 1% by weight
  solubility: good solubility
[6]; solvent system (3) Ethanol: Propylene Glycol 1:1 (v:v), after extensive sonication
  solubility: not soluble
[6]; solvent system (4) Ethanol:H2O 7:3 (v:v), after extensive sonication
  solubility: not soluble
[6]; solvent system (5) IPM, after extensive sonication
  solubility: not soluble
[6]; solvent system (6) Ethanol:Tween 80: Cetyl Alcohol 90:5:5 (w:w)
  solubility: good solubility
[6]; solvent system (7) CCT: Tween 80: Cetyl Alcohol 90:5:5 (w:w), after extensive sonication
  solubility: not soluble
[6]; solvent system (8) CCT: Isopropanol 1:1 (v: v)
  solubility: good solubility
Androgen receptor (AR) [7]
  inhibition at 0.1 µM: 8%
  inhibition at 1 µM: 20%
  inhibition at 3 µM: 40%
  inhibition at 10 µM: 90%
[8]; MDA-kb2, 6 μM
  Cell Viability: 80%
[8]; MDA-kb2, 10 μM
  Cell Viability: 50%
